Results: PubChem BioAssay AID2060883 (Molecular Pharmacology Branch, DTP, NCI, 2025)
Blank lines part the entries; values can stand above or below the compound they belong to.

Test system: 843782-103-R-J1-PDC complex spheroid viability
Experiment: Anticancer human tumor 843782-103-R-J1-PDC patient-derived lung adenocarcinoma cell line growth inhibition [RAS]
Conditions: for IC50: curve of first compound; for viability, T/C: stronger effect = lower value
From the text: RAS pathway inhibitors in Combinations in Complex Spheroids
A high-throughput screen of multi-cell type tumor spheroids was designed to identify active combinations of RAS pathway inhibitors and targeted small molecules. Complex spheroids include a stromal component modeled by human endothelial cells (HUVEC) and fibroblasts modeled by human mesenchymal stem cells (MSCs). The concentration ranges selected for each drug and investigational agent were based upon clinically achievable concentrations if the clinical Cmax of the agent was known.
Compounds. The drugs and investigational agents: abemaciclib (NSC768073), cobimetinib (NSC768068), divarasib (GDC6063, NSC841802), docetaxel (NSC628503), GDC-1971 (RLY-1971, NSC841576), gemcitabine (NSC613327), inavolisib (NSC800729), ipatasertib (NSC767898), KB-0742 (NSC834161), MRTX-1133 (NSC836407), osimertinib (NSC779217), RMC-4630 (NSC839698), RMC-6236 (NSC851965), RMC-6291 (NSC852671), Ro-3306 (NSC812927), sapanisertib (NSC764658), SN-38 (NSC673596), staurosporine (NSC755774), SY5609 (NSC837396), and tovorafenib (DAY101, NSC766906), were obtained from the National Cancer Institute (NCI) Developmental Therapeutics Program Chemical Repository. The FDA-approved anticancer drug set is available from the NCI Developmental Therapeutics Program. […] The stock solutions were prepared in dimethyl sulfoxide (DMSO, Sigma-Aldrich, St. Louis, MO, cat. D2650) at 800-fold the tested concentration and stored at -70 degrees C prior to their use. All drugs and investigational agents were tested over a range starting from a high concentration at or near the clinical Cmax and decreasing in half-log increments. If the clinical Cmax for an agent had not been determined, the highest concentration tested was 10 microM.
Cell Culture. All cells were maintained in an incubator at 37 degrees C and 5% CO2 with 95% humidity. The PDC lines were cultured according to standard operating procedures established by the NCI PDMR. All PDCs were thawed and cultured in Matrigel-coated flasks prepared with a working solution of 1X Ham's F-12 nutrient mix, without supplementation (Invitrogen, Waltham, MA, cat. 11765054), 100 U/mL penicillin-streptomycin (Invitrogen, cat. 15140122), and 2.5% Matrigel (Corning Inc., Corning, NY, cat. 354248) for the first three passages. The 362531-283-R-J2-PDC and 782815-120-R-J1-PDC lines were cultured in 6C/Colon 1B media, which includes advanced DMEM/F-12 (Thermo Fisher Scientific, cat. 12634028), 10 mM HEPES (Thermo Fisher Scientific, cat. 15630080), 1X GlutaMAX supplement (Thermo Fisher Scientific, cat. 35050061), 0.1 mg/mL primocin (InvivoGen, San Diego, CA, cat. ant-pm-2), 10% defined fetal bovine serum, heat inactivated (HyClone Laboratories Inc., Logan, UT, cat. SH30070.03HI), 50% L-WRN conditioned media (ATCC, cat. CRL-3276), 1.25 mM N-Acetyl-L-cysteine (Sigma-Aldrich, cat. A9165), 10 mM nicotinamide (Sigma-Aldrich, cat. N0636), 1X B-27 supplement (Thermo Fisher Scientific, cat. 17504044), 1X N-2 supplement (Thermo Fisher Scientific, cat. 17502048), 50 ng/mL human EGF (Thermo Fisher Scientific, cat. PHG0311), and 10 microM Y-27632 dihydrochloride (Tocris Bioscience, cat. 1254). The K12877-001-R-J1-PDC line was cultured in 6I media, which includes all 6C/Colon 1B media plus 10 ng/mL human FGF-10 (PeproTech, cat. 100-26), 1 ng/mL human FGF-2 (PeproTech, cat. 100-18B), 1 µM prostaglandin E2 (Tocris Bioscience, cat. 2296), […] hydrocortisone (Sigma-Aldrich, cat. H4001), and […] bovine insulin (Sigma-Aldrich, cat. I6634). The K86415-001-R-J1-PDC line was cultured in 6D media, which includes all 6C/Colon 1B media components minus the L-WRN conditioned media. The 485176-168-R4-J1-PDC was cultured in PANC media, which includes all 6C/Colon 1B media plus 100 ng/mL human FGF-10 (PeproTech, cat. 100-26), 500 nM SB-431542 (Selleckchem, cat. S1067), and 10 nM gastrin (Tocris Bioscience, cat. 3006). […]
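Note: viability read after seven days of compound exposure.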

IC50 (second compound 0.00316 µM): 14.2 nM
IC50 (second compound 0.01 µM): 9.03 nM
IC50 (second compound 0.0316 µM): 10.4 nM
IC50 (second compound 0.1 µM): 8.53 nM
IC50 (second compound 0.316 µM): 8.44 nM
IC50 (second compound 1 µM): 9.84 nM
SMILES: CC(C)n1nc(-c2ccc3oc(N)nc3c2)c2c(N)ncnc21 + C=CC(=O)N1CCN(c2nc(OCC3CCCN3C)nc3c(F)c(-c4nc(N)cc(C)c4C(F)(F)F)c(Cl)cc23)C(C)C1
viability, T/C (second compound 0.00316 µM, first compound 0.000316 µM): 93.5%
viability, T/C (second compound 0.00316 µM, first compound 0.001 µM): 72%
viability, T/C (second compound 0.00316 µM, first compound 0.00316 µM): 81.2%
viability, T/C (second compound 0.00316 µM, first compound 0.01 µM): 53.2%
viability, T/C (second compound 0.00316 µM, first compound 0.0316 µM): 36.3%
viability, T/C (second compound 0.00316 µM, first compound 0.1 µM): 21.2%
viability, T/C (second compound 0.01 µM, first compound 0.000316 µM): 86.5%
viability, T/C (second compound 0.01 µM, first compound 0.001 µM): 79.8%
viability, T/C (second compound 0.01 µM, first compound 0.00316 µM): 63.3%
viability, T/C (second compound 0.01 µM, first compound 0.01 µM): 50.2%
viability, T/C (second compound 0.01 µM, first compound 0.0316 µM): 30.8%
viability, T/C (second compound 0.01 µM, first compound 0.1 µM): 18.8%
viability, T/C (second compound 0.0316 µM, first compound 0.000316 µM): 84.4%
viability, T/C (second compound 0.0316 µM, first compound 0.001 µM): 79.2%
viability, T/C (second compound 0.0316 µM, first compound 0.00316 µM): 66.6%
viability, T/C (second compound 0.0316 µM, first compound 0.01 µM): 48.3%
viability, T/C (second compound 0.0316 µM, first compound 0.0316 µM): 36.5%
viability, T/C (second compound 0.0316 µM, first compound 0.1 µM): 20.9%
viability, T/C (second compound 0.1 µM, first compound 0.000316 µM): 81.6%
viability, T/C (second compound 0.1 µM, first compound 0.001 µM): 73.6%
viability, T/C (second compound 0.1 µM, first compound 0.00316 µM): 66.4%
viability, T/C (second compound 0.1 µM, first compound 0.01 µM): 45.4%
viability, T/C (second compound 0.1 µM, first compound 0.0316 µM): 33.1%
viability, T/C (second compound 0.1 µM, first compound 0.1 µM): 19.9%
viability, T/C (second compound 0.316 µM, first compound 0.000316 µM): 101%
viability, T/C (second compound 0.316 µM, first compound 0.001 µM): 73.5%
viability, T/C (second compound 0.316 µM, first compound 0.00316 µM): 67.3%
viability, T/C (second compound 0.316 µM, first compound 0.01 µM): 51%
viability, T/C (second compound 0.316 µM, first compound 0.0316 µM): 28.8%
viability, T/C (second compound 0.316 µM, first compound 0.1 µM): 19.2%
viability, T/C (second compound 1 µM, first compound 0.000316 µM): 85.3%
viability, T/C (second compound 1 µM, first compound 0.001 µM): 73.9%
viability, T/C (second compound 1 µM, first compound 0.00316 µM): 62.2%
viability, T/C (second compound 1 µM, first compound 0.01 µM): 53.5%
viability, T/C (second compound 1 µM, first compound 0.0316 µM): 31.8%
viability, T/C (second compound 1 µM, first compound 0.1 µM): 18.7%

IC50 (second compound 0.000949 µM): 17.9 nM
IC50 (second compound 0.003 µM): 11.5 nM
IC50 (second compound 0.00949 µM): < 3.16 nM
IC50 (second compound 0.03 µM): < 3.16 nM
IC50 (second compound 0.0949 µM): < 3.16 nM
IC50 (second compound 0.3 µM): < 3.16 nM
SMILES: Nc1ccn(C2OC(CO)C(O)C2(F)F)c(=O)n1 (centres undefined) + CCn1c(-c2cc(N3CCN(C)CC3)cnc2C(C)OC)c2c3cc(ccc31)-c1csc(n1)CC(NC(=O)C1CC1C)C(=O)N1CCCC(N1)C(=O)OCC(C)(C)C2
viability, T/C (second compound 0.000949 µM, first compound 0.00316 µM): 83.4%
viability, T/C (second compound 0.000949 µM, first compound 0.01 µM): 73.4%
viability, T/C (second compound 0.000949 µM, first compound 0.0316 µM): 27.1%
viability, T/C (second compound 0.000949 µM, first compound 0.1 µM): 3.62%
viability, T/C (second compound 0.000949 µM, first compound 0.316 µM): 1.6%
viability, T/C (second compound 0.000949 µM, first compound 1 µM): 2.63%
viability, T/C (second compound 0.003 µM, first compound 0.00316 µM): 64.4%
viability, T/C (second compound 0.003 µM, first compound 0.01 µM): 54%
viability, T/C (second compound 0.003 µM, first compound 0.0316 µM): 20.3%
viability, T/C (second compound 0.003 µM, first compound 0.1 µM): 3.76%
viability, T/C (second compound 0.003 µM, first compound 0.316 µM): 1.56%
viability, T/C (second compound 0.003 µM, first compound 1 µM): 1.61%
viability, T/C (second compound 0.00949 µM, first compound 0.00316 µM): 37.1%
viability, T/C (second compound 0.00949 µM, first compound 0.01 µM): 36.2%
viability, T/C (second compound 0.00949 µM, first compound 0.0316 µM): 16.3%
viability, T/C (second compound 0.00949 µM, first compound 0.1 µM): 5.56%
viability, T/C (second compound 0.00949 µM, first compound 0.316 µM): 2.02%
viability, T/C (second compound 0.00949 µM, first compound 1 µM): 1.82%
viability, T/C (second compound 0.03 µM, first compound 0.00316 µM): 19%
viability, T/C (second compound 0.03 µM, first compound 0.01 µM): 22.7%
viability, T/C (second compound 0.03 µM, first compound 0.0316 µM): 15.8%
viability, T/C (second compound 0.03 µM, first compound 0.1 µM): 7.32%
viability, T/C (second compound 0.03 µM, first compound 0.316 µM): 2.39%
viability, T/C (second compound 0.03 µM, first compound 1 µM): 1.81%
viability, T/C (second compound 0.0949 µM, first compound 0.00316 µM): 15.9%
viability, T/C (second compound 0.0949 µM, first compound 0.01 µM): 18.9%
viability, T/C (second compound 0.0949 µM, first compound 0.0316 µM): 13.9%
viability, T/C (second compound 0.0949 µM, first compound 0.1 µM): 11.8%
viability, T/C (second compound 0.0949 µM, first compound 0.316 µM): 4.42%
viability, T/C (second compound 0.0949 µM, first compound 1 µM): 2.61%
viability, T/C (second compound 0.3 µM, first compound 0.00316 µM): 14.3%
viability, T/C (second compound 0.3 µM, first compound 0.01 µM): 16.6%
viability, T/C (second compound 0.3 µM, first compound 0.0316 µM): 16.6%
viability, T/C (second compound 0.3 µM, first compound 0.1 µM): 12.6%
viability, T/C (second compound 0.3 µM, first compound 0.316 µM): 7.82%
viability, T/C (second compound 0.3 µM, first compound 1 µM): 3.72%
